Data reported in patent US10434186B2, “Functionalized linear ligands and complexes thereof” (LUMIPHORE, INC., priority 2014, dated 2019).
Counter-ions that a name gives are not always drawn. One block for each compound: values may come before it.

How the values were obtained:
[1] = Molar extinction coefficient from absorption spectrum in 0.1 M TRIS buffer; format: physicochemical
Description: This corresponds to 1.218×10^−6 moles of ligand in 50 mL and c=2.436×10^−5 M. A=ϵcl, at λmax, A=0.42853 at 327 nm. […] This corresponds to 2.472×10^−6 moles of ligand in 50 mL and c=4.945×10^−5 M. A=ϵcl; at λmax, A=0.96915 at 315 nm.

[2] = Eu(III) complex of the ligand; cited from earlier work
[3] = in 0.5 M H2SO4; cited from earlier work

ϵ280/ϵ327 ratio for protein labelling ([1]; 0.1 M TRIS buffer pH 7.4): 3.11 | extinction coefficient ϵ at 327 nm (λmax) ([1]; 0.1 M TRIS buffer pH 7.4, 1 cm cuvette, based on CHN): ~17,595 M^−1 cm^−1 | extinction coefficient at 280 nm ([1]; 0.1 M TRIS buffer pH 7.4, 280 nm): ~5655 M⁻¹ cm⁻¹
SMILES: Cl.NCCOCCNC(=O)C(CCCN(CCCNC(=O)c1cccc(=O)n1O)C(=O)c1cccc(=O)n1O)N(CCCNC(=O)c1cccc(=O)n1O)C(=O)c1cccc(=O)n1O (centres unmarked) [Compound 2-8]

SMILES: O=C(NCCCN(CCCCN(CCCNC(=O)c1cccc(=O)n1O)C(=O)c1cccc(=O)n1O)C(=O)c1cccc(=O)n1O)c1cccc(=O)n1O [3,4,3-LI(1,2-HOPO)]
quantum yield of Eu(III) complex [2]: ~20%

SMILES: C=C[C@H]1C[N@@]2CC[C@H]1C[C@H]2[C@H](O)c1ccnc2ccc(OC)cc12 [Quinine Sulfate]
reference quantum yield Φref [3]: 0.546
